From ChEMBL document CHEMBL1201862, “PubChem BioAssay data set” (2004)
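Cultured in 96-well plates, cells were exposed to test compound for 48 hours across five concentrations. GI50 is the concentration that inhibits growth by half.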 Calls of active or inactive are those of the source. Cut-off read from the data, not from the text of the source: active = GI50 up to about 1.1 µM and inactive = higher.

How the values were obtained:
Experiment in all cases: DTP human tumour cell line panel, 48 h
[1] = tested on: TK-10
[2] = tested on: UACC-62
[3] = tested on: SN12C
[4] = tested on: SK-MEL-2
[5] = tested on: UO-31
[6] = tested on: NCI-H522
[7] = tested on: HT-29
[8] = tested on: OVCAR-3
[9] = tested on: HCC 2998
[10] = tested on: A498
[11] = tested on: U-251
[12] = tested on: NCI-H460
[13] = tested on: SK-MEL-28
[14] = tested on: LOX IMVI
[15] = tested on: K562
[16] = tested on: SF-295
[17] = tested on: OVCAR-4
[18] = tested on: SF-268

Measured: GI50

N#Cc1ccc(Sc2ccccc2)cc1C#N
inactive: [1] 80.5 µM | [2] > 100 µM | [3] 60.3 µM | [4] > 100 µM | [5] > 100 µM | [6] 31.7 µM | [7] > 100 µM | [8] > 100 µM | [9] > 100 µM | [10] > 100 µM | [11] 36.1 µM | [12] 22.2 µM | [13] > 100 µM | [14] 19.9 µM | [15] 45.8 µM | [16] 39.9 µM | [17] > 100 µM | [18] 22.6 µM

COc1cc(=O)oc(/C=C/CO)c1C
inactive: [1] > 100 µM | [2] > 100 µM | [3] > 100 µM | [5] > 100 µM | [6] 28.9 µM | [7] > 100 µM | [8] > 100 µM | [9] > 100 µM | [10] > 100 µM | [11] > 100 µM | [13] > 100 µM | [14] > 100 µM | [15] > 100 µM | [16] > 100 µM | [17] > 100 µM | [18] > 100 µM

C/C(=N\NC(C)(C)C)c1sc(-c2nc(C)c(/C(C)=N/NC(C)(C)C)s2)nc1C
inactive: [2] > 100 µM | [3] > 100 µM | [5] > 100 µM | [6] > 100 µM | [7] > 100 µM | [8] > 100 µM | [9] > 100 µM | [10] > 100 µM | [11] > 100 µM | [13] > 100 µM | [14] > 100 µM | [15] > 100 µM | [16] > 100 µM | [17] > 100 µM | [18] > 100 µM

CCOC(=O)C/C(N)=C(\C#N)C(=O)OCC
inactive: [1] > 100 µM | [2] > 100 µM | [3] > 100 µM | [4] > 100 µM | [5] > 100 µM | [6] > 100 µM | [7] > 100 µM | [8] > 100 µM | [10] > 100 µM | [11] > 100 µM | [12] > 100 µM | [13] > 100 µM | [14] > 100 µM | [15] > 100 µM | [16] > 100 µM | [18] > 100 µM

Cc1cc(C)c(/C=N/NS(=O)(=O)c2ccccc2)c(C)c1
inactive: [1] > 100 µM | [2] > 100 µM | [3] 92.3 µM | [4] > 100 µM | [5] 72.1 µM | [7] > 100 µM | [8] 47.6 µM | [9] > 100 µM | [10] 56.1 µM | [11] > 100 µM | [12] 59.4 µM | [13] > 100 µM | [14] > 100 µM | [15] 94.4 µM | [16] 38.5 µM | [17] > 100 µM | [18] > 100 µM

COc1ccc(C)cc(O)c1=O
inactive: [1] > 100 µM | [2] 22.3 µM | [3] 38.5 µM | [4] 94.8 µM | [5] 27.4 µM | [6] 30.4 µM | [7] 44 µM | [8] 31.6 µM | [10] 38.4 µM | [11] 42.8 µM | [12] 17.7 µM | [13] 57.4 µM | [14] 11.9 µM | [15] 45.4 µM | [16] 27.9 µM | [17] 45 µM | [18] 28.6 µM

O=C1OC(CC(=O)c2ccc(Cl)cc2Cl)C(Cl)=C1Cl (configuration not stated)
inactive: [1] > 55.5 µM | [2] 17 µM | [3] 18.9 µM | [4] 19.8 µM | [5] > 42.6 µM | [6] 17.6 µM | [7] 18.7 µM | [8] 33.8 µM | [9] 15.8 µM | [10] > 100 µM | [11] 27.6 µM | [12] > 57.3 µM | [13] 19.1 µM | [14] 24.5 µM | [15] 29.1 µM | [16] > 100 µM | [17] 42.6 µM | [18] 25.2 µM

COc1ccc(CC2c3c(cc(OC)c(OC)c3OC)CCN2C)cc1OC (configuration not stated)
inactive: [1] > 100 µM | [3] > 100 µM | [4] > 100 µM | [5] > 100 µM | [6] > 100 µM | [7] > 100 µM | [8] > 100 µM | [9] > 100 µM | [10] > 100 µM | [11] > 100 µM | [12] > 100 µM | [13] > 100 µM | [15] > 100 µM | [16] 63.7 µM | [17] 78.7 µM | [18] > 100 µM

COc1ccc2nc3cc(Cl)ccc3c(Sc3ccccc3[N+](=O)[O-])c2c1
inactive: [1] 81.8 µM | [2] > 100 µM | [3] 28.1 µM | [4] > 100 µM | [5] > 100 µM | [6] > 100 µM | [8] > 100 µM | [9] > 100 µM | [10] > 100 µM | [11] > 100 µM | [12] > 100 µM | [13] > 100 µM | [14] > 100 µM | [15] > 100 µM | [16] > 100 µM | [17] > 100 µM | [18] > 100 µM

COc1ccc2c(c1)C(=O)c1ccc(OC)cc1C2=S
inactive: [1] > 100 µM | [2] 49.1 µM | [3] > 100 µM | [4] > 100 µM | [5] > 100 µM | [6] > 100 µM | [7] > 100 µM | [8] > 100 µM | [9] > 100 µM | [10] > 100 µM | [11] 24.4 µM | [13] > 100 µM | [14] > 100 µM | [15] > 100 µM | [16] > 100 µM | [18] 81.5 µM

CN(c1ccccc1)C1C(=O)N(c2ccccc2)C1/C=C/c1ccccc1 (configuration not stated)
inactive: [1] > 100 µM | [2] 72.6 µM | [3] > 100 µM | [4] > 100 µM | [5] > 100 µM | [6] > 100 µM | [7] > 100 µM | [8] > 100 µM | [9] > 100 µM | [10] 5.58 µM | [11] > 100 µM | [12] > 100 µM | [13] > 100 µM | [16] > 100 µM | [18] > 100 µM

O=C(O)c1ccccc1Cc1ccco1
inactive: [1] > 100 µM | [2] > 100 µM | [3] > 100 µM | [4] > 100 µM | [5] > 100 µM | [6] > 100 µM | [7] > 100 µM | [8] > 100 µM | [9] > 100 µM | [10] > 100 µM | [11] > 100 µM | [12] > 100 µM | [15] > 100 µM | [16] > 100 µM | [17] > 100 µM | [18] > 100 µM
